From US20130338106A1, “COMPOUNDS INHIBITING LEUCINE-RICH REPEAT KINASE ENZYME ACTIVITY” (priority 2011, published 2013)

Legend:
Assay type in all cases: biochemical
Settings in all cases: tested at 10 uM, read-out: percent inhibition of the kinase activity
MAPKAPK3 = molecular target: T1, MAPKAPK3 (Homo sapiens, UniProt Q16644); test: ProfilerPro Kinase Selectivity, MAPKAPK3
T1 construct: purchased Caliper LifeSciences
Description: (§1) Kinome selectivity profiling was performed using two example compounds according to the manufacturer's instructions using Caliper LifeSciences' ProfilerPro Kinase Selectivity Assay Kits. Compounds prepared in Examples 1 and 7 were tested at 10 uM and data were recorded using the Caliper LabChip® EZ Reader™. Each compounds' percent inhibition of the kinase activity measured in this manner is reported in the following lists.

PRKCB1 = molecular target: T2, PRKCB1 (Homo sapiens, UniProt P05771); test: ProfilerPro Kinase Selectivity, PRKCB1
T2 construct: purchased Caliper LifeSciences
Description: as §1

P38D = molecular target: T3, P38D (Homo sapiens, UniProt O15264); test: ProfilerPro Kinase Selectivity, P38D
T3 construct: purchased Caliper LifeSciences
Description: as §1

CDK1/CYCB1 = molecular target: T4, CDK1/CYCB1 (Homo sapiens, UniProt P06493); test: ProfilerPro Kinase Selectivity, CDK1/CYCB1
T4 construct: purchased Caliper LifeSciences
Description: as §1

MST1 = molecular target: T5, MST1 (Homo sapiens, UniProt Q13043); test: ProfilerPro Kinase Selectivity, MST1
T5 construct: purchased Caliper LifeSciences
Description: as §1

MAPKAPK5 = molecular target: T6, MAPKAPK5 (Homo sapiens, UniProt Q8IW41); test: ProfilerPro Kinase Selectivity, MAPKAPK5
T6 construct: purchased Caliper LifeSciences
Description: as §1

EPHA2 = molecular target: T7, EPHA2 (Homo sapiens, UniProt P29317); test: ProfilerPro Kinase Selectivity, EPHA2
T7 construct: purchased Caliper LifeSciences
Description: as §1

LTK = molecular target: T8, LTK (Homo sapiens, UniProt P29376); test: ProfilerPro Kinase Selectivity, LTK
T8 construct: purchased Caliper LifeSciences
Description: as §1

AKT3 = molecular target: T9, AKT3 (Homo sapiens, UniProt Q9Y243); test: ProfilerPro Kinase Selectivity, AKT3
T9 construct: purchased Caliper LifeSciences
Description: as §1

TSSK1 = molecular target: T10, TSSK1 (Homo sapiens, UniProt Q9BXA7); test: ProfilerPro Kinase Selectivity, TSSK1
T10 construct: purchased Caliper LifeSciences
Description: as §1

ABL1 G250E = molecular target: T11, ABL1 G250E (Homo sapiens, UniProt P00519, G250E); test: ProfilerPro Kinase Selectivity, ABL1 G250E
T11 construct: purchased Caliper LifeSciences
Description: as §1

FYN = molecular target: T12, FYN (Homo sapiens, UniProt P06241); test: ProfilerPro Kinase Selectivity, FYN
T12 construct: purchased Caliper LifeSciences
Description: as §1

MST1R = molecular target: T13, MST1R (Homo sapiens, UniProt Q04912); test: ProfilerPro Kinase Selectivity, MST1R
T13 construct: purchased Caliper LifeSciences
Description: as §1

NEK2 = molecular target: T14, NEK2 (Homo sapiens, UniProt P51955); test: ProfilerPro Kinase Selectivity, NEK2
T14 construct: purchased Caliper LifeSciences
Description: as §1

IKKB = molecular target: T15, IKKB (Homo sapiens, UniProt O14920); test: ProfilerPro Kinase Selectivity, IKKB
T15 construct: purchased Caliper LifeSciences
Description: as §1

AURB = molecular target: T16, AURB (Homo sapiens, UniProt Q96GD4); test: ProfilerPro Kinase Selectivity, AURB
T16 construct: purchased Caliper LifeSciences
Description: as §1

DYRK4 = molecular target: T17, DYRK4 (Homo sapiens, UniProt Q9NR20); test: ProfilerPro Kinase Selectivity, DYRK4
T17 construct: purchased Caliper LifeSciences
Description: as §1

FGFR2 N549H = molecular target: T18, FGFR2 N549H (Homo sapiens, UniProt P21802, N549H); test: ProfilerPro Kinase Selectivity, FGFR2 N549H
T18 construct: purchased Caliper LifeSciences
Description: as §1

TEC = molecular target: T19, TEC (Homo sapiens, UniProt P42680); test: ProfilerPro Kinase Selectivity, TEC
T19 construct: purchased Caliper LifeSciences
Description: as §1

RET V804L = molecular target: T20, RET V804L (Homo sapiens, UniProt P07949, V804L); test: ProfilerPro Kinase Selectivity, RET V804L
T20 construct: purchased Caliper LifeSciences
Description: as §1

CLK2 = molecular target: T21, CLK2 (Homo sapiens, UniProt P49760); test: ProfilerPro Kinase Selectivity, CLK2
T21 construct: purchased Caliper LifeSciences
Description: as §1

PIM1 = molecular target: T22, PIM1 (Homo sapiens, UniProt P11309); test: ProfilerPro Kinase Selectivity, PIM1
T22 construct: purchased Caliper LifeSciences
Description: as §1

CAMK2B = molecular target: T23, CAMK2B (Homo sapiens, UniProt Q13554); test: ProfilerPro Kinase Selectivity, CAMK2B
T23 construct: purchased Caliper LifeSciences
Description: as §1

SGK3 = molecular target: T24, SGK3 (Homo sapiens, UniProt Q96BR1); test: ProfilerPro Kinase Selectivity, SGK3
T24 construct: purchased Caliper LifeSciences
Description: as §1

SRC = molecular target: T25, SRC (Homo sapiens, UniProt P12931); test: ProfilerPro Kinase Selectivity, SRC
T25 construct: purchased Caliper LifeSciences
Description: as §1

PRKCD = molecular target: T26, PRKCD (Homo sapiens, UniProt Q05655); test: ProfilerPro Kinase Selectivity, PRKCD
T26 construct: purchased Caliper LifeSciences
Description: as §1

PYK2 = molecular target: T27, PYK2 (Homo sapiens, UniProt Q14289); test: ProfilerPro Kinase Selectivity, PYK2
T27 construct: purchased Caliper LifeSciences
Description: as §1

INSR = molecular target: T28, INSR (Homo sapiens, UniProt P06213); test: ProfilerPro Kinase Selectivity, INSR
T28 construct: purchased Caliper LifeSciences
Description: as §1

FMS = molecular target: T29, FMS (Homo sapiens, UniProt P07333); test: ProfilerPro Kinase Selectivity, FMS
T29 construct: purchased Caliper LifeSciences
Description: as §1

AKT1 = molecular target: T30, AKT1 (Homo sapiens, UniProt P31749); test: ProfilerPro Kinase Selectivity, AKT1
T30 construct: purchased Caliper LifeSciences
Description: as §1

TXK = molecular target: T31, TXK (Homo sapiens, UniProt P42681); test: ProfilerPro Kinase Selectivity, TXK
T31 construct: purchased Caliper LifeSciences
Description: as §1

TRKC = molecular target: T32, TRKC (Homo sapiens, UniProt Q16288); test: ProfilerPro Kinase Selectivity, TRKC
T32 construct: purchased Caliper LifeSciences
Description: as §1

MER = molecular target: T33, MER (Homo sapiens, UniProt Q12866); test: ProfilerPro Kinase Selectivity, MER
T33 construct: purchased Caliper LifeSciences
Description: as §1

PAK3 = molecular target: T34, PAK3 (Homo sapiens, UniProt O75914); test: ProfilerPro Kinase Selectivity, PAK3
T34 construct: purchased Caliper LifeSciences
Description: as §1

P70S6K = molecular target: T35, P70S6K (Homo sapiens, UniProt P23443); test: ProfilerPro Kinase Selectivity, P70S6K
T35 construct: purchased Caliper LifeSciences
Description: as §1

LYNB = molecular target: T36, LYNB (Homo sapiens, UniProt P07948); test: ProfilerPro Kinase Selectivity, LYNB
T36 construct: purchased Caliper LifeSciences
Description: as §1

IRAK4 = molecular target: T37, IRAK4 (Homo sapiens, UniProt Q9NWZ3); test: ProfilerPro Kinase Selectivity, IRAK4
T37 construct: purchased Caliper LifeSciences
Description: as §1

JAK2 = molecular target: T38, JAK2 (Homo sapiens, UniProt O60674); test: ProfilerPro Kinase Selectivity, JAK2
T38 construct: purchased Caliper LifeSciences
Description: as §1

AMPKA1 = molecular target: T39, AMPKA1 (Homo sapiens, UniProt Q13131); test: ProfilerPro Kinase Selectivity, AMPKA1
T39 construct: purchased Caliper LifeSciences
Description: as §1

T7 sequence (P29317 24-976, species assumed): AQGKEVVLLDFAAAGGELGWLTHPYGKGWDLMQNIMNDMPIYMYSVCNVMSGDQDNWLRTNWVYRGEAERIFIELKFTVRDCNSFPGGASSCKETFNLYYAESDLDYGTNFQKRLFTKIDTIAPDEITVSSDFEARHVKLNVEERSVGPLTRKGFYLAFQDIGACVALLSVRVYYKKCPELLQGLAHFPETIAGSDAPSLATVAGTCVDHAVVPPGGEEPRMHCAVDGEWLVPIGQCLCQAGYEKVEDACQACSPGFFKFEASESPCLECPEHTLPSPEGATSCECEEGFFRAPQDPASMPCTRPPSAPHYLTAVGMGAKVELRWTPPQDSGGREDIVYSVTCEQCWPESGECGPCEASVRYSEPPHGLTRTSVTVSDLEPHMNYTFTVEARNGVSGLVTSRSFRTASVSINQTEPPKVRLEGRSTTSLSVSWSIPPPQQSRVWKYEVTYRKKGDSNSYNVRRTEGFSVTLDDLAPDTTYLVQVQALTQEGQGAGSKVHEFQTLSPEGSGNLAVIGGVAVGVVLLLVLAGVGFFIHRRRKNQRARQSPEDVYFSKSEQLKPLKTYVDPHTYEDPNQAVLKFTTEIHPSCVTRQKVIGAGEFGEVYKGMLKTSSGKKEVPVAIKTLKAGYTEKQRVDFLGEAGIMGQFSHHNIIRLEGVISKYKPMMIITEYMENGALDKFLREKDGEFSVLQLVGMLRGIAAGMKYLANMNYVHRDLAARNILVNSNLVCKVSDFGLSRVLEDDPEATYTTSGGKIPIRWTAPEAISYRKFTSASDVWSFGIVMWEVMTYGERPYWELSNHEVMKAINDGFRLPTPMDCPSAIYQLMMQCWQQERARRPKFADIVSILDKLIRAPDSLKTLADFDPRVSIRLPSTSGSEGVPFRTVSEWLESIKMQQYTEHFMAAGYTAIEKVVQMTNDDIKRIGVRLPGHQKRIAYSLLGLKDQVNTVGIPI
T16 sequence (Q96GD4 whole entry): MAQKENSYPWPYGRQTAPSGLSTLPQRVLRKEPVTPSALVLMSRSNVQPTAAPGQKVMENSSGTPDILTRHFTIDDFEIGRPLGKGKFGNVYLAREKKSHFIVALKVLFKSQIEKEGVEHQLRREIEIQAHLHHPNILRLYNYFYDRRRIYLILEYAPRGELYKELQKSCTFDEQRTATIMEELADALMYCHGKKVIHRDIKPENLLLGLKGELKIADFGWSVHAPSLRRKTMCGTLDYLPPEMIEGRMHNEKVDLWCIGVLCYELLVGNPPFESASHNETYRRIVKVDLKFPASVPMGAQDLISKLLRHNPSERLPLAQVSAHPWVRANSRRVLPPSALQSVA
T20 sequence (P07949 29-1114 V804L): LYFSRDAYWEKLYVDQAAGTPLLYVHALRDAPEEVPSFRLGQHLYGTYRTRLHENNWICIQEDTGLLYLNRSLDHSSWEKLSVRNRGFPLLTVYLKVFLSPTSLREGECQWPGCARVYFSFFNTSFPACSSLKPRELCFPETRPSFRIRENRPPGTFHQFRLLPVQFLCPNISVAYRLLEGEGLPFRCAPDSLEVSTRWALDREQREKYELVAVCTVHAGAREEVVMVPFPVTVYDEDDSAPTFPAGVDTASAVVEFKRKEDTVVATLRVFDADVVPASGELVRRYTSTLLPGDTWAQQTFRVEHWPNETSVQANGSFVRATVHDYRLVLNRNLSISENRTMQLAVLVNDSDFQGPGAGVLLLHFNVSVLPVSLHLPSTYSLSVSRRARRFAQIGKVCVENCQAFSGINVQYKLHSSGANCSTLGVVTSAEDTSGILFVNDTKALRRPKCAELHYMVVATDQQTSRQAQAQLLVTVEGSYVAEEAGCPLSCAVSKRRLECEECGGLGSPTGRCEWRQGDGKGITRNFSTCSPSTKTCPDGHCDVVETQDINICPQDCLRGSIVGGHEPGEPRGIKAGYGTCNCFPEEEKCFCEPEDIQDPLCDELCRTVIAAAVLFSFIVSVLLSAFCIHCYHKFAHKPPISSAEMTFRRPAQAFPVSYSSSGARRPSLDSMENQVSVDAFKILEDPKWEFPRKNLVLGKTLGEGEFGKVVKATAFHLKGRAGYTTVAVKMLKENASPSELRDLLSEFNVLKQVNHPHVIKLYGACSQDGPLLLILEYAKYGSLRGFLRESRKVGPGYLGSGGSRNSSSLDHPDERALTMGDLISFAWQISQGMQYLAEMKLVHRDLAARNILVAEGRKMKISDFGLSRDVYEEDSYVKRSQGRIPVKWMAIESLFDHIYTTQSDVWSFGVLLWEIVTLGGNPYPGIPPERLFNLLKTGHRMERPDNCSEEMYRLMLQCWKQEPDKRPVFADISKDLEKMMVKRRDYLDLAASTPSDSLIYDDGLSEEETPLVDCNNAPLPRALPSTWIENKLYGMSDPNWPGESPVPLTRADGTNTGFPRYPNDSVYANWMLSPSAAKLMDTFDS
T29 sequence (P07333 20-972, species assumed): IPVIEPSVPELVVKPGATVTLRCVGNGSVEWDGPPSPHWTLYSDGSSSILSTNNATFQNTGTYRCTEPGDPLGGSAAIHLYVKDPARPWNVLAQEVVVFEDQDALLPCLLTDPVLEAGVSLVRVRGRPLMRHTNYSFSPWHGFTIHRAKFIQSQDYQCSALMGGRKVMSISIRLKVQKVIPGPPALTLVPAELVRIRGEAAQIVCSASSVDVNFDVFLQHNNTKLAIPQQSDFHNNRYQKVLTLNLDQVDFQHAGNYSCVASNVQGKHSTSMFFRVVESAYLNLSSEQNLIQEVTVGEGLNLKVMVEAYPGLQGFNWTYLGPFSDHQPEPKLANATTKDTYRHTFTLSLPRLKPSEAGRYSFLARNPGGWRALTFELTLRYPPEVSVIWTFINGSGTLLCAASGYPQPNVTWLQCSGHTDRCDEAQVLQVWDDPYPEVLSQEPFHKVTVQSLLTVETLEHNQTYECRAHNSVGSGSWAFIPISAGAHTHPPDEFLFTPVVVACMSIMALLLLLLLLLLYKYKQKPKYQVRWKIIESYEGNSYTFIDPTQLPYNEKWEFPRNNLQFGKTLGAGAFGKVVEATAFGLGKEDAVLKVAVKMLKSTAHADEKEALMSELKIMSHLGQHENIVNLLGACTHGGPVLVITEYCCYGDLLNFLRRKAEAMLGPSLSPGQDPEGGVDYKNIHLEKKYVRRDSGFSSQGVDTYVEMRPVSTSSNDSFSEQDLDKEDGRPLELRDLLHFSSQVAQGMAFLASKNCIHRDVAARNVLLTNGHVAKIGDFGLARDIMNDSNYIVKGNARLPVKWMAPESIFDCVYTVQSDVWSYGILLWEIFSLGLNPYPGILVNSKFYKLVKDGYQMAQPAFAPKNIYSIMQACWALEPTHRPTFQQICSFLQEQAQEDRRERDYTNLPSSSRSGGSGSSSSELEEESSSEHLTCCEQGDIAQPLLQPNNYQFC
T28 sequence (P06213 28-1382, species assumed): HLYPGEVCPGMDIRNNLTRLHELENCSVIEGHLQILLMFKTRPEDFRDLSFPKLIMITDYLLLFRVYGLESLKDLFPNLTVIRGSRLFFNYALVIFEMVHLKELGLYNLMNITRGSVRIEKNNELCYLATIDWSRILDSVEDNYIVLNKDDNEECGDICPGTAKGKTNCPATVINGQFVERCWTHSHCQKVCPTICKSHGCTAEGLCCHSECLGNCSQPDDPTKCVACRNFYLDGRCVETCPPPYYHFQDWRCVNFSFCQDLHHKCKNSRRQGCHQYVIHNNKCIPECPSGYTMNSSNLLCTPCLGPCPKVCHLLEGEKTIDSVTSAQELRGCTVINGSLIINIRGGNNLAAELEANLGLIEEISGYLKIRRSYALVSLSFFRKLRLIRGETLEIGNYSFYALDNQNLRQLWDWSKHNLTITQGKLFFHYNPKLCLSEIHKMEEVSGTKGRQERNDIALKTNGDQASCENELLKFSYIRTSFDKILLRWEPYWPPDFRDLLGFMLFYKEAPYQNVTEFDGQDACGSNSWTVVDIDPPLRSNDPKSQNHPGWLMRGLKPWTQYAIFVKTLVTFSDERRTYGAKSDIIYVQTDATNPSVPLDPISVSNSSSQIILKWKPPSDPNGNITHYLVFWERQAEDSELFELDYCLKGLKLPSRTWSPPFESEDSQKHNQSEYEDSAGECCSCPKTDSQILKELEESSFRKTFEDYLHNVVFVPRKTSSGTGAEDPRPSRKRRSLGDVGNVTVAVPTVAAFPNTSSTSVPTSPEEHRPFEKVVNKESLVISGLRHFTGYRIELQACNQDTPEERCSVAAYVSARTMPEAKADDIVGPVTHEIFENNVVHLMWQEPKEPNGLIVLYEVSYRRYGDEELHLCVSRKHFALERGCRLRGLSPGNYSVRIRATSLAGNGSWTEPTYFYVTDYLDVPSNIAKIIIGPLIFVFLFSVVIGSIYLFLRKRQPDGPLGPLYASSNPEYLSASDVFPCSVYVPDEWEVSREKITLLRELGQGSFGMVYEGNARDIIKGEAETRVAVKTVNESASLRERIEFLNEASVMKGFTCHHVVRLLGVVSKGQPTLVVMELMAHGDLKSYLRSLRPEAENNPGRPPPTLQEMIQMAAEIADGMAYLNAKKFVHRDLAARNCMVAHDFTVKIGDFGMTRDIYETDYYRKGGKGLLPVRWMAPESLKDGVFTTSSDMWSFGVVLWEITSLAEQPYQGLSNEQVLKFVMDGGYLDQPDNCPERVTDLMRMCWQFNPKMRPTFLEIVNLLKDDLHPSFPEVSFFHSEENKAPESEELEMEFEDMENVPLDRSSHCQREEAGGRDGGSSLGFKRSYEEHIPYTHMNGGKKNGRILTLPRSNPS
T10 sequence (Q9BXA7 whole entry, species assumed): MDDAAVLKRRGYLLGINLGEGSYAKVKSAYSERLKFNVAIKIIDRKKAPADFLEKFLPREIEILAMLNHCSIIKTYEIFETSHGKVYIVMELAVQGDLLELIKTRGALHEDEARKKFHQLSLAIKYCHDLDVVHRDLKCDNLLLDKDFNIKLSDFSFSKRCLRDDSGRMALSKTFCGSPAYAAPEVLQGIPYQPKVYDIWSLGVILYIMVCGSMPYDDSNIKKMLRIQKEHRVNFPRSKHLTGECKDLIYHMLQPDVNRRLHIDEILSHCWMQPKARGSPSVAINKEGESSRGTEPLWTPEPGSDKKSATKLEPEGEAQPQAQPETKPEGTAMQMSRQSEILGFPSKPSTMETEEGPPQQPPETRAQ

SMILES	inhibition at 10 µM (MAPKAPK3) [%]	inhibition at 10 µM (PRKCB1) [%]	inhibition at 10 µM (P38D) [%]	inhibition at 10 µM (CDK1/CYCB1) [%]	inhibition at 10 µM (MST1) [%]	inhibition at 10 µM (MAPKAPK5) [%]	inhibition at 10 µM (EPHA2) [%]	inhibition at 10 µM (LTK) [%]	inhibition at 10 µM (AKT3) [%]	inhibition at 10 µM (TSSK1) [%]	inhibition at 10 µM (ABL1 G250E) [%]	inhibition at 10 µM (FYN) [%]	inhibition at 10 µM (MST1R) [%]	inhibition at 10 µM (NEK2) [%]	inhibition at 10 µM (IKKB) [%]	inhibition at 10 µM (AURB) [%]	inhibition at 10 µM (DYRK4) [%]	inhibition at 10 µM (FGFR2 N549H) [%]	inhibition at 10 µM (TEC) [%]	inhibition at 10 µM (RET V804L) [%]	other results
CC1(C)CC(=O)c2c(SC3CCCC3)sc(-c3cc[nH]n3)c2C1 [Example 7, 3-(Cyclopentylsulfanyl)-6,6-dimethyl-1-(1H-pyrazol-3-yl)-6,7-dihydro-2-benzothiophen-4(5H)-one]	-1	-3.9	-0.3	-6.7	-3	1.9	0.7	19.5	-2.7	8.3	6.4	2.5	-7	0.9	0.5	-3.1	0.4	-5.8	-3.2	15.7	inhibition at 10 µM (CLK2): 1.3%; inhibition at 10 µM (PIM1): -16.3%; inhibition at 10 µM (CAMK2B): 6%; inhibition at 10 µM (SGK3): 4.6%; inhibition at 10 µM (SRC): 1.5%; inhibition at 10 µM (PRKCD): 12.6%; inhibition at 10 µM (PYK2): -0.6%; inhibition at 10 µM (INSR): 0.9%; inhibition at 10 µM (FMS): -6.5%; inhibition at 10 µM (AKT1): 0.1%; inhibition at 10 µM (TXK): 8.4%; inhibition at 10 µM (TRKC): 0.5%; inhibition at 10 µM (MER): 8%; inhibition at 10 µM (PAK3): -170%; inhibition at 10 µM (P70S6K): -4.8%; inhibition at 10 µM (LYNB): -4.9%; inhibition at 10 µM (IRAK4): 3.7%; inhibition at 10 µM (JAK2): 5.3%; inhibition at 10 µM (AMPKA1): -0.5%
CSc1sc(-c2cc[nH]n2)c2c1C(=O)CCC2 [Example 1, 3-(Methylsulfanyl)-1-(1H-pyrazol-3-yl)-6,7-dihydro-2-benzothiophen-4(5H)-one]	0.1	-5.1	4.2	5.3	7.2	4.4	0.7	16	-2.2	24	5	1.2	-1.3	-0.8	9.3	57.7	-1.1	1.4	0.6	41.5	inhibition at 10 µM (CLK2): 31.3%; inhibition at 10 µM (PIM1): 26.3%; inhibition at 10 µM (CAMK2B): 6.3%; inhibition at 10 µM (SGK3): 4.6%; inhibition at 10 µM (SRC): 7.3%; inhibition at 10 µM (PRKCD): -14.8%; inhibition at 10 µM (PYK2): 4.2%; inhibition at 10 µM (INSR): 3.4%; inhibition at 10 µM (FMS): -36.1%; inhibition at 10 µM (AKT1): -3.2%; inhibition at 10 µM (TXK): 22.7%; inhibition at 10 µM (TRKC): 10.3%; inhibition at 10 µM (MER): 23.8%; inhibition at 10 µM (PAK3): -13.1%; inhibition at 10 µM (P70S6K): 5.7%; inhibition at 10 µM (LYNB): 8.2%; inhibition at 10 µM (IRAK4): 31.1%; inhibition at 10 µM (JAK2): 19.4%; inhibition at 10 µM (AMPKA1): 16.4%
